“And” between values parts separate entries of the source, which are not always exact repeats. Equal entries are not always repeated.
How the values were obtained:
[1] = tested on: SH-SY5Y cells; experiment: Intracellular Ca content by ICP-MS, dark or green light; assay type: cell-based; settings: kept in the dark
Procedure: Six hours after compound addition, the cells were irradiated with green light or kept in the dark. Intracellular Ca^2+ levels were then assessed by ICP-MS 24 h after light activation. The NMDA and α-amino-3-hydroxy-5-methyl-4-isoxazole propionic acid (AMPA) receptors being glutamate-gated cation channels allow for an increase of calcium permeability of the neuron membrane; we also used L-glutamic acid (GA, 10 μM), a known NMDA and AMPA activator, as positive control in this assay.
(§1) 1 mL of SH-SY5Y cells were seeded in 12-well plates (Greiner, No. 665180; 500.000 cells per well). […] After an additional 24 h of incubation, the cells were trypsined, collected, and centrifuged. The resulting cell pellet was dissolved in 1 mL of PBS and counted via a BioRad TC20 automated cell counter. Afterward, the solution was centrifuged and washed again with PBS with subsequent centrifuging two more times. The resulting cell pellet was digested in 0.5 mL of HNO3 overnight in a hot oven (90 °C). The solution was diluted with Milli-Q water to 10 mL, and the Ru and Ca content [ppb] was measured via ICP-MS.

[2] = tested on: SH-SY5Y cells; experiment: Cytotoxicity, SRB end-point assay, dark or green light; assay type: cell-based
[3] = tested on: SH-SY5Y cells; experiment: Ru cellular uptake by ICP-MS, dark or green light; assay type: in vitro ADME; settings: 20 μM, kept in the dark
Procedure: These surprising results led us to further investigate whether the uptake of the respective compounds plays a pivotal role in the alternation of the proliferation. […] The complex was allowed to incubate for 24 h after irradiation before the ruthenium cellular content was analyzed by ICP-MS. […] We finally decided to incubate the SH-SY5Y cells with the EC50 values obtained from the cytotoxicity experiment using the U-87MG cell, as those procedures would allow one to observe the effect of the prodrug on the healthy neuron-like cells when treated with the phototoxic compound dose. […] Overall, cellular uptake in neuron-like SH-SY5Y cells followed the same trends as those for GBM cells U-87MG in the dark, while uptake was much higher after light activation.
as §1

[4] = tested on: U-87MG glioblastoma cells; experiment: Cytotoxicity, SRB end-point assay, dark or green light; settings: read-out: EC50,D, kept in the dark, 24 h + 48 h incubation, normoxic (21% O2)
[5] = tested on: U-87MG cells; experiment: Ru cellular uptake by ICP-MS; assay type: in vitro ADME; settings: 10 μM; for Ru cellular uptake: dark
Description: The cellular accumulation of Ru^2+ can provide additional information about how differences in anticancer efficacy may relate to the amount of the Ru prodrug in the cell before light activation. For instance, low uptake often leads to limited cytotoxicity due to limited access to the drug target. […] Similar results have been observed in A549 lung cancer cells previously.[56] […] For unknown reasons, it appears that the amine bridge in the i-diqa ligand facilitates the uptake of ruthenium compound [3](PF6)2.
Materials: 65% nitric acid (Suprapur, Merck) was used in the sample digestion process, while diluted 1% nitric acid (v/v) was employed as a carrying solution throughout the ICP measurements. For preparation of calibration and internal standards, National Institute of Standards and Technology (NIST)-traceable 1000 mg/L elemental standards were used (TraceCERT, Fluka). Approximately 18 MΩ cm^–1 water (Milli-Q) was employed in all sample preparation and analysis steps.
Instrumentation: Calibration standards were prepared in a Secuflow fume hood (SCALA) to prevent contamination by atmospheric particulates. The standard samples and measurement samples were analyzed for trace elements using the NexION 2000 (PerkinElmer) ICP-MS instrument equipped with a concentric glass nebulizer and a Peltier-cooled glass spray chamber. An SC2 DX autosampler (PerkinElmer) was connected to ICP-MS for sample introduction. Syngistix software for ICP-MS (v.2.5, PerkinElmer) was used for all data recording and processing. Five trace elemental calibration standards for ICP-MS analysis were prepared using NIST-traceable 1000 mg/L Ru standards: 0, 1, 5, 20, and 100 μg/L. Samples were analyzed without dilution in the original delivery containers to minimize the possibility of contamination. Here, 10 μg/L Rh and In were used as internal standards. To check the calibration, samples were analyzed with a blank measurement and a repeat measurement with one of the calibration standards.
Sample preparation: 1 mL of U-87MG cells were seeded in 12-well plates (Greiner, No. 665180; 400.000 cells per well). […] Afterward, the cells were trypsined, collected, and centrifuged. The resulting cell pellet was dissolved in 1 mL of PBS and counted via a BioRad TC20 automated cell counter. Afterward, the solution was centrifuged and washed again with PBS with subsequent centrifuging. This washing step was repeated twice. The resulting cell pellet was digested in 0.5 mL of 65% HNO3 overnight in a hot oven (90 °C). The solution was diluted with Milli-Q water to 10 mL, and the Ru content [ppb] was measured by ICP-MS.

[6] = Stability in the dark in the presence of L-glutathione (UV-vis); assay type: physicochemical; settings: water, 37 °C, 500 μM L-glutathione, spectra after 2 and 24 h
Procedure: The synthesis and characterization of all three complexes have been described earlier and can be found in refs ([56]) and ([57]). In water or OptiMEM cell medium, the complexes were also previously found to be stable in the dark for at least 24 h at 37 °C. Upon blue or green light irradiation (λ = 452 or 517 nm), they are activated by photosubstitution of the thioether ligand to afford the aqua ruthenium complex and the free thioether ligand.[56] […] The UV–vis spectra were then recorded after 2 and 24 h separately. […] Additionally, we could not observe any color change, which is typical when one of the ligands is exchanged against another one.
UV–vis spectroscopy experiments were performed on a Cary 60 Varian spectrometer equipped with a temperature control set to 310 K and a magnetic stirrer. The measurements were performed in a quartz cuvette containing 3 mL of solution. […] Then, the UV–vis spectrum was recorded without the presence of GSH. After 4 min, GSH was added (0.5 mM) and UV–vis spectra were recorded directly after and after 2 and 24 h, while the vial was kept in the dark and at 37 °C.

[7] = molecular target: AChE (Electrophorus electricus, UniProt O42275)
Chain of AChE (O42275 24-633): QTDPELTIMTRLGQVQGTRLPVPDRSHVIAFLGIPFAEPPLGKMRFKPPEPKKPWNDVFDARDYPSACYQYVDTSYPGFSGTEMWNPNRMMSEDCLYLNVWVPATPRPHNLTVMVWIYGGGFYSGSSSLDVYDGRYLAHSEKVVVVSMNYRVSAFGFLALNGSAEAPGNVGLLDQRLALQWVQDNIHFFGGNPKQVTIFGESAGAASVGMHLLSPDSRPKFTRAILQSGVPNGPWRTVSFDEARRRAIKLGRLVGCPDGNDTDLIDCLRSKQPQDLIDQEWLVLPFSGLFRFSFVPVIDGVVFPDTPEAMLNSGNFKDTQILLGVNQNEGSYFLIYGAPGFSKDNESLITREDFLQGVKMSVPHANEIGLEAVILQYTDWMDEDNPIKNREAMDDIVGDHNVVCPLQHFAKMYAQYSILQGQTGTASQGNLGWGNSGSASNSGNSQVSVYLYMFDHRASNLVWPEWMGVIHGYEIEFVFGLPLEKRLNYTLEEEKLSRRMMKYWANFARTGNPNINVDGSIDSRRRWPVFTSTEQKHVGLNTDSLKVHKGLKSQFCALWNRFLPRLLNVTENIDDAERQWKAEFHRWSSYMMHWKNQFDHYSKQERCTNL
Description: Among all enzymes involved in transmembrane signaling, another important one is AChE. In a modified procedure (for further details, see the Experimental Section), we checked whether the ruthenium complexes were able to inhibit AChE in the dark and after light activation. The colorimetric assay used Ellman’s reagent. […] The conversion of 5,5′-dithiobis(2-nitrobenzoic acid) (DTNB) to yellow 2-nitro-5-thiobenzoate (TNB) initiated by the addition of acetylthiocholine was then detected by UV–vis spectroscopy every 5 min for a total time of […]. […] The solution was further diluted 1:50 in 50 mM Tris buffer, pH = 8 (10 μL in 490 μL), and then placed in 4.5 mL of 50 mM Tris buffer, pH = 8. […] 50 μL of the enzyme and 50 μL of the complex solution were added to a 96-well plate in triplicates. […] Meanwhile, a 10 mM solution of acetylthiocholine iodide and 10 mM DTNB was prepared. After the respective time, in each well, 5 μL of the acetylthiocholine iodide and DTNB mixture was added. The absorbance was read at a microplate Tecan reader at 410 nm every 5 min for in total 40 min.

[8] = tested on: A375 skin melanoma; parameters: method as in PMID 31625740, PMID 29220545, PMID 34378103; settings: cited from earlier work
[9] = tested on: A549 lung cancer cell lines; parameters: method as in PMID 31625740, PMID 29220545, PMID 34378103; settings: cited from earlier work
[10] = tested on: U-87MG glioblastoma cells; experiment: Cytotoxicity determined by MTT (3 mg/mL); assay type: cell-based; settings: Homo sapiens, dark

In the case of `N[C@@H](CCC(=O)O)C(=O)O` [L-glutamic acid, reference compound], the “Ca uptake, Dark” value ([1]; 10 μM) is reported as 322.84± 53 ng Ca/mio. cells and the “Ca uptake, Dark” value ([1]; 10 μM, listed as Glutamate) is reported as 322 ng Ca/mio. cells.

With `CSCCO.F[P-](F)(F)(F)(F)F.F[P-](F)(F)(F)(F)F.[Ru+2].c1ccc(-c2cccc(-c3ccccn3)n2)nc1.c1ccc(-c2ccccn2)nc1` [[1](PF6)2] the “concentration required to block cell growth” value ([2]; in the dark) was greater than 40 µM, the EC50 ([2]; kept in the dark, SRB, normoxic (21% O2)) was greater than 100 µM and the “Ca uptake, Dark” value ([1]; 20 μM) was 467.78 ± 122 ng Ca/mio. cells and 467 ng Ca/mio. cells. For the same compound, the “Ru uptake, Dark” value [3] was 0.40 ± 0.25 ng Ru/mio. cells and 0.4 ng Ru/mio. cells, the EC50 [4] was greater than 100 µM and the Uptake in % ([5]; 6 h) was 0.56%. For the same compound, the Ru cellular uptake ([5]; 6 h incubation) was 0.6 ng Ru/mio. cells and 0.60 ± 0.38 ng Ru/mio. cells, the Uptake in % ([5]; 24 h) was 0.43% and the Ru cellular uptake ([5]; 24 h incubation) was 0.42 ng Ru/mio. cells and 0.42 ± 0.11 ng Ru/mio. cells. For the same compound, the overall uptake ([5]; one figure given for 6 and 24 h) was 0.5%, the “stability in the dark with GSH (UV-vis, in words)” value [6] was “no change suggesting ligand exchange on ruthenium was observed” and the PI ([7]; AChE, IC50 dark / IC50 green light) was greater than 2.2. For the same compound, the IC50 ([7]; read-out: IC50,D, isolated AChE, 30 min in the dark, read 35 min after DTNB addition) was greater than 15 µM.

In the case of `O.[Ru+2].c1ccc(-c2cccc(-c3ccccn3)n2)nc1.c1ccc(-c2ccccn2)nc1` [[4]^2+, [Ru(tpy)(bpy)(OH2)]^2+], the “toxicity (in words)” value [8] is listed as “nontoxic” and the “toxicity (in words)” value [9] is listed as “nontoxic”.

`Cn1nnc2c(C(N)=O)ncn2c1=O` [temozolomide] showed an EC50 [10] greater than 100 µM.
